In PubChem BioAssay (NCI):
Values joined by “and” are separate entries in the source; they are usually repeats but may differ in a detail not shown here. Equal entries are not always repeated.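 Step 1: Grow cells in 96-well plates. Step 2: Expose to compound for 48 hours at 5 concentrations. Step 3: Interpolate endpoints linearly; if unreached, use highest concentration. Here, GI50 denotes the concentration required for 50% inhibition of growth. TGI marks complete inhibition of growth.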

Columns and labels:
Experiment in all cases: DTP human tumour cell line panel, 48 h
HOP-18 NSCLC = tested on: HOP-18 NSCLC
MDA-MB-435 = tested on: MDA-MB-435
MDA-MB-231 breast = tested on: MDA-MB-231 breast
PC-3 prostate = tested on: PC-3 prostate
BT-549 breast = tested on: BT-549 breast
T-47D breast = tested on: T-47D breast
MDA-N = tested on: MDA-N

Structure (SMILES) | TGI (HOP-18 NSCLC) [µM] | GI50 (MDA-MB-435) | TGI (MDA-MB-435) | GI50 (MDA-MB-231 breast) | TGI (MDA-MB-231 breast) | GI50 (PC-3 prostate) | TGI (PC-3 prostate) [µM] | GI50 (BT-549 breast) | TGI (BT-549 breast) | GI50 (T-47D breast) | TGI (T-47D breast) | TGI (MDA-N) [µM]
O=C1/C(=C/c2ccc3c(c2)OCCO3)CCC/C1=C\c1ccc2c(c1)OCCO2 | 80.2 | – | – | – | – | – | – | – | – | – | – | –
C1OC1CN1CCN(CC2CO2)CC1 (stereo not drawn) | > 100 | – | – | – | – | – | – | – | – | – | – | –
CCCOc1cc2ccccc2cc1C(=O)Nc1nc(NC)c2c(ccc3nccc32)[nH]1 | – | 0.0401 µM | 0.197 µM | 1.34 µM | 2.87 µM | 0.494 µM | 2 | 1.45 µM | 3.02 µM | – | – | –
Cc1ccc(S(=O)(=O)OCC#CCOS(=O)(=O)c2ccc(C)cc2)cc1 | – | 1.9 µM | 4.3 µM | 3.39 µM | 11 µM | 1.79 µM | 3.6 | 4.57 µM | 9.68 µM | 1.94 µM | 4.26 µM | –
CN1CCN(c2ccc(OC(F)(F)F)c(Nc3ncc4c(n3)-c3c(c(C(N)=O)nn3CCO)CC4)c2)CC1 | – | 0.0165 µM and 0.0188 µM | 0.0542 µM and 0.0634 µM | 0.0755 µM and 0.059 µM | 8.61 µM and 3.23 µM | 0.0663 µM and 0.0986 µM | > 82.4 | 0.0875 µM and 0.176 µM | 18 µM and > 10 µM | 0.944 µM and 0.538 µM | 40.8 µM and > 10 µM | –
N#Cc1cnc2cc(OC[C@@H](O)CO)c(NC(=O)C3CCCC3)cc2c1Nc1ccc(OCc2cccc(F)c2)c(Cl)c1 | – | 1.82 µM | 7.71 µM | 0.74 µM | 1.82 µM | 0.947 µM | 1.92 | 1.09 µM | 2.89 µM | 1.13 µM | 4.31 µM | –
O=C(CSCC(=O)N/N=C/c1ccccc1O)N/N=C\c1ccccc1O | – | 3.44 µM | > 100 µM | 4.16 µM | > 100 µM | 3.06 µM | > 100 | 1.73 µM | 56.3 µM | 2.36 µM | > 100 µM | –
Cc1cc(C(=O)Nc2n[nH]c3ccccc23)n[nH]1 | – | > 100 µM | > 100 µM | > 100 µM | > 100 µM | > 100 µM | > 100 | > 100 µM | > 100 µM | > 100 µM | > 100 µM | –
COc1cc(Cl)cc(-c2nn(-c3cccc(NC(=O)Nc4cccc(C(F)(F)F)c4)c3)cc2-c2ccncc2)c1 | – | 1.74 µM | 3.82 µM | 1.59 µM | 4.91 µM | 0.417 µM | 3.2 | 2.22 µM | 5.6 µM | 1.23 µM | 6.99 µM | –
Cc1ccc(Nc2cc(Cl)c([N+](=O)[O-])cc2[N+](=O)[O-])cc1 | – | 3.07 µM | 10.8 µM | 4.42 µM | 15.8 µM | 3.59 µM | 14.2 | 3.72 µM | 11.8 µM | 3.28 µM | 9.51 µM | –
COc1cccc(-c2nn(-c3ccccc3)cc2-c2ccnc(NCCCNC(=O)c3cccc(C(F)(F)F)c3)c2)c1 | – | 3.27 µM | 17.1 µM | 3.86 µM | 25.7 µM | 3.18 µM | 24 | 2.84 µM | 9 µM | 2.33 µM | 8.4 µM | –
NC(=S)N=Nc1c(O)[nH]c2c(Cl)cc(Cl)cc12 | – | – | 34 µM | – | 50.2 µM | – | 81.1 | – | 50.4 µM | – | – | 35.1
CC(C)(C)OC(=O)NCCCCn1c2c(c3ccccc3c1=O)C(=O)c1ccccc1-2 | – | 35.3 µM | > 100 µM | 17.1 µM | 53.1 µM | 8.71 µM | > 100 | 24.5 µM | 80.6 µM | 21.9 µM | 79.8 µM | –
O=S(=O)(NCCNc1nccc(-c2c(-c3ccc(F)c(O)c3)nc3sccn23)n1)c1ccc(Cl)cc1 | – | – | – | 2.98 µM | 24.1 µM | 1.14 µM | > 50 | 1.65 µM | 14 µM | 1.08 µM | 8.28 µM | –
Cc1ccc(C(=O)c2sc3nc4c(cc3c2N)CCCC4)c(C)c1 | – | 0.0258 µM | 0.086 µM | 1.08 µM | > 100 µM | 0.433 µM | > 100 | 1.2 µM | > 100 µM | 0.45 µM | > 69.8 µM | –
COc1ccc(C(C)c2cc(OC)c(OC)c(OC)c2)cc1 (stereo not drawn) | – | – | – | 0.341 µM | > 50 µM | 0.165 µM | > 50 | 0.223 µM | > 50 µM | – | – | –
CCN(CC)c1c(-c2ccccc2)n[nH]c1C(=O)OC | – | 20.1 µM | 55.6 µM | 35.8 µM | 60.4 µM | 31.2 µM | > 100 | 16.4 µM | 51.1 µM | 17.5 µM | 64.8 µM | –
NCCCOc1cc2ccccc2cc1C(=O)Nc1ccc(Cl)cc1OC(=O)c1cc2ccccc2cc1OCCCN | – | 0.961 µM | 3.96 µM | 0.596 µM | 1.99 µM | 0.575 µM | 1.58 | 1.66 µM | 3.1 µM | 0.282 µM | 1.02 µM | –
N#Cc1ccc(-c2c(-c3ncn[nH]3)sc(N3CCOCC3)c2C#N)c(F)c1 | – | 0.995 µM | 17 µM | 3.28 µM | 25.7 µM | 0.345 µM | 20.3 | 3.84 µM | 39.2 µM | 0.0391 µM | 0.522 µM | –
CCOC(=O)C(Cc1c[nH]c2cc(N(CCO)CCO)ccc12)(NC(C)=O)C(=O)OCC | – | 34.6 µM and 50.1 µM | 200 µM | 960 µM | > 1000 µM | 94.9 µM and 160 µM | > 1000 | 69.3 µM and 459 µM | > 1000 µM | 472 µM | > 1000 µM | –
COc1cc(-n2cc(-c3ccccc3)[nH]c2=O)cc(OC)c1OC | – | 76.3 µM | > 100 µM | 37.2 µM | > 100 µM | 40 µM | > 100 | – | – | 30.5 µM | > 100 µM | –
O=C(O)C1CC=CCC1C(=O)Nc1cccc(O)c1 (stereo not drawn) | – | – | > 100 µM | – | > 100 µM | – | > 100 | – | > 100 µM | – | > 100 µM | > 100
CC(=O)Oc1ccc2c(c1)[C@@]1(C)CCCC(C)(C)[C@@H]1CC2 | – | 16.8 µM | 40 µM | 17.8 µM | 34.2 µM | 20.1 µM | 39 | 36.5 µM | > 100 µM | 37.5 µM | > 100 µM | –
